Experiments:
Test in all cases: cells
Parameters in all cases: species or system AML cell lines (8); Secondary HTS, 10-point dose-response in triplicate, Cell Titer Glo viability, four-parameter fit EC50
CMK = details: Homo sapiens, CMK, 72 h, read-out: CMK
U937 = details: Homo sapiens, U-937, 72 h, read-out: U937
CHRF288-11 = details: 72 h, read-out: CHRF288-11
ML-2 = details: Homo sapiens, ML-2, 72 h, read-out: ML-2
MV4-11 = details: Homo sapiens, MV4-11, 72 h, read-out: MV4-11
M07e = details: M-07e, 72 h, read-out: M07e
MOLM-13 = details: Homo sapiens, MOLM-13, 72 h, read-out: MOLM-13
CMS = details: 72 h, read-out: CMS

EC50 (U937) [µM] | EC50 (MV4-11) [µM] | EC50 (MOLM-13) [µM] | SMILES | EC50 (CMK) [µM] | EC50 (CHRF288-11) [µM] | EC50 (ML-2) [µM] | EC50 (M07e) [µM] | EC50 (CMS) [µM]
1.5 | > 10 | > 10 | O=C(c1ccc(Nc2nccc(-c3cc4ccccc4s3)n2)cc1)N1CCC(N2CCCC2)CC1 [SJ000806482, IKK 16] | 2.8 | 1 | 0.42 | 4.4 | 0.45
> 10 | 0.071 | 0.11 | CCc1c(O)cc(O)c(C(=O)c2ccc(OCCN3CCOCC3)c(OC)c2)c1CC(=O)N(CCOC)CCOC [SJ000821566, KW-2478] | 4.4 | 6.3 | 0.16 | > 10 | > 10
> 10 | > 10 | > 10 | Cc1cc(I)ccc1Nc1c(C(=O)NOCC2CC2)cc(F)c(F)c1F [SJ000821584, PD 198306] | > 10 | > 10 | > 10 | > 10 | > 10
6.2 | > 10 | > 10 | CNC(=O)c1c(F)cccc1Nc1nc(Nc2cc3c(ccn3C(=O)CN(C)C)cc2OC)nc2[nH]ccc12 [SJ000821585, GSK1838705A] | 5.8 | > 10 | > 10 | > 10 | > 10
> 10 | 3.2 | 9.3 | CCOc1cc(N2CCC(O)CC2)ccc1Nc1ncc2c(n1)N(C)c1ccccc1C(=O)N2C [SJ000821586, XMD 8-92] | 2 | > 10 | > 10 | > 10 | > 10
6.5 | 6.4 | 6.4 | COC(=O)[C@H](CC(C)C)NC(=O)c1ccc(NC[C@@H](N)CS)cc1-c1cccc2ccccc12 [SJ000821624, GGTI 298] | > 10 | > 10 | > 10 | > 10 | > 10
> 10 | > 10 | > 10 | O=C(NCC1(c2nc(-c3ccccc3)cs2)CCOCC1)c1cccc(-c2noc(C(F)(F)F)n2)c1 [SJ000833838, TMP269] | > 10 | > 10 | > 10 | 0.19 | > 10
4.7 | > 10 | > 10 | C[C@@H]1COCCN1c1cc(C2(S(C)(=O)=O)CC2)nc(-c2cccc3[nH]ccc23)n1 [SJ000833844, AZ-20] | > 10 | 2.5 | 0.031 | 0.2 | 0.6
3.9 | > 10 | > 10 | CN(c1ncccc1CNc1nc(Nc2ccc3c(c2)CC(=O)N3)ncc1C(F)(F)F)S(C)(=O)=O [SJ000833883, PF-00562271] | 2.6 | > 10 | 0.5 | 6.2 | > 10
> 10 | > 10 | > 10 | N#Cc1ccc(COC[C@H]2O[C@@H](n3c(NCc4ccc(Cl)c(Cl)c4)nc4c(N)ncnc43)[C@H](O)[C@@H]2O)cc1 [SJ000833885, VER-155008] | > 10 | > 10 | > 10 | > 10 | 5.9

Second part, the compound before the results:

SMILES | EC50 (U937) [µM] | EC50 (MV4-11) [µM] | EC50 (MOLM-13) [µM] | EC50 (CMK) [µM] | EC50 (CHRF288-11) [µM] | EC50 (ML-2) [µM] | EC50 (M07e) [µM] | EC50 (CMS) [µM]
CSCC[C@H](NC(=O)[C@H](Cc1ccccc1)NC[C@@H](NC[C@@H](N)CS)C(C)C)C(=O)O [SJ000803726, FTASE INHIBITOR I] | > 10 | > 10 | > 10 | > 10 | > 10 | > 10 | > 10 | > 10
Cc1cc(C(C)Nc2ccccc2)c2nc(N3CCOCC3)cc(=O)n2c1 (stereo not shown) [SJ000803731, TGX-221] | > 10 | > 10 | 8 | > 10 | > 10 | > 10 | > 10 | > 10
Cc1c(N)nc([C@H](CC(N)=O)NC[C@H](N)C(N)=O)nc1C(=O)N[C@H](C(=O)N[C@H](C)[C@@H](O)[C@H](C)C(=O)N[C@H](C(=O)NCCc1nc(-c2nc(C(=O)NCCC[S+](C)C)cs2)cs1)[C@@H](C)O)[C@@H](OC1OC(CO)C(O)C(O)C1OC1OC(CO)C(O)C(OC(N)=O)C1O)c1cnc[nH]1 (stereo partly shown) [SJ000804032, BLEOMYCIN] | > 10 | > 10 | 6.9 | > 10 | > 10 | > 10 | > 10 | > 10
CC(C)NCCCn1c(Sc2cc3c(cc2I)OCO3)nc2c(N)ncnc21 [SJ000821568, PU-H71] | > 10 | 0.023 | 0.019 | 0.024 | 0.17 | 0.082 | > 10 | 0.18
CCCCNc1ncc2c(-c3ccc(CN4CCN(C)CC4)cc3)cn(C3CCC(O)CC3)c2n1 (stereo not shown) [SJ000821849, UNC2025A] | 8.1 | 0.001 | 0.021 | 4.6 | 6.4 | 5 | 8.2 | > 10
CNC(=O)c1ccccc1Nc1nc(Nc2ccc(N3CCOCC3)cc2OC)ncc1Cl [SJ000822451, NVP-TAE226] | 4.5 | > 10 | 0.7 | 0.2 | 9.8 | 2.5 | 7.6 | > 10
CC(N[C@H]1C[C@@H]1c1ccccc1)c1ccc2c(c1)OCCO2 (stereo partly shown) [SJ000832930, LSD1-C76] | > 10 | 0.001 | > 10 | > 10 | > 10 | > 10 | > 10 | > 10
COc1ccc2nc3n[nH]c(C)c3c(NCCOCCO)c2c1 [SJ000832935, SCH 51344] | > 10 | > 10 | > 10 | > 10 | > 10 | > 10 | > 10 | > 10
O=C(CCCCCCNC(=O)c1cnc(N(c2ccccc2)c2ccccc2)nc1)NO [SJ000833835, ROCILINOSTAT] | 10 | > 10 | > 10 | 9.1 | > 10 | > 10 | 2.7 | > 10
COc1ccc(Cn2ccc3ccc(C(=O)NO)cc32)cc1 [SJ000833836, PCI 34051] | > 10 | > 10 | > 10 | > 10 | > 10 | > 10 | > 10 | 6.8
Cc1ccc(C(=O)c2cc(/C=C/C(=O)NO)n(C)c2)cc1 [SJ000833840, MC 1293] | > 10 | > 10 | > 10 | 8.7 | > 10 | > 10 | 0.45 | > 10
CC(C)(C#N)c1ccc(N2C(=O)OCc3cnc4ccc(-c5cnc6ccccc6c5)cc4c32)cc1 [SJ000833848, ETP-46464] | > 10 | > 10 | > 10 | 0.73 | 8.3 | 3.6 | > 10 | 5.2
O=C(CCN1CCN(C(=O)OCc2cc(Cl)cc(Cl)c2)CC1)c1ccc2[nH]c(=O)oc2c1 [SJ000833851, PF-8380] | > 10 | > 10 | 0.0024 | > 10 | > 10 | > 10 | > 10 | > 10
Cc1noc(-c2ccc(-c3ccc(CC(=O)O)cc3)cc2)c1NC(=O)O[C@H](C)c1ccccc1 [SJ000833854, AM-095] | > 10 | > 10 | 0.0068 | > 10 | > 10 | > 10 | > 10 | > 10
Cc1noc(-c2ccc(-c3ccc(CC(=O)O)cc3)cc2)c1NC(=O)O[C@H](C)c1ccccc1Cl [SJ000833864, AM-966] | > 10 | > 10 | 0.018 | > 10 | > 10 | > 10 | > 10 | > 10
C=CC(=O)Nc1cccc(Nc2nc(Nc3ccc(OCCOC)cc3)ncc2F)c1 [SJ000833882, CC-292 (AVL-292)] | 4.8 | > 10 | > 10 | 4 | > 10 | > 10 | 9.5 | > 10

Source: publication PMC6522510 (Nature Communications, 2019)
